Converted amounts (≈) assume the structure as drawn. Where two headings read alike, the source gives them in different places. A value given as a limit tells only on which side of the number the result lay.

One series deals with K-562 (leukemia) cells. Nature of the series: Antiproliferative sulforhodamine B assay, K-562. To be noted: Homo sapiens, K562, 48 h treatment, SRB; for IC100: read-out: Total growth inhibition (TGI). It is filed as cell-based. Background: In SRB staining, fixed cells bind dye roughly in proportion to their protein.
Series [1] has as its system NCI-H460 (lung, non-small cells) cells. Nature of the series: Antiproliferative sulforhodamine B assay, NCI-H460. Conditions: for GI50: Homo sapiens, NCI-H460, 48 h; for Total growth inhibition (TGI): NCI-H460 lung, 48 h treatment, SRB.
Protocol: (§1) The populene D analogues were tested at concentrations between 0.25 and 250 µg/mL and doxorubicin (DOX 0.025–25 µg/mL) was used as positive control. […] To analyze the GI50 parameter, mean log GI50 was calculated by conversion of the GI50 values for each tumor cell line tested (not including the normal cell line HaCat) against a test compound and then these values were averaged.
(§2) Stock cultures were grown in 5 mL of RPMI 1640 (GIBCO BRL, Life Technologies) supplemented with 5% of fetal bovine serum. Penicillin:streptomycin (1,000 μg mL^−1:1,000 UI mL^‑1, 1 mL L^−1) was added to the experimental cultures.
(§3) Afterwards cells were fixed with 50% trichloroacetic acid and cell proliferation determined by spectrophotometric quantification (540 nm) of cellular protein content using sulforhodamine B assay[20]. Doxorubicin (0.025–25 mg/mL) was used as positive control. Three measurements were obtained at the beginning of incubation (time zero, T0) and 48 h post-incubation for compound-free (C) and tested (T) cells. Cell proliferation was determined according to the equation 100 × [(T − T0)/C − T0], for T0 < T ≤ C, and 100 × [(T − T0)/T0], for T ≤ T0 and a concentration-response curve for each cell line was plotted and, from these curves, GI50 (concentration causing 50% growth inhibition) and TGI (concentration that promotes total growth inhibition) were determined by means of non-linear regression analysis using software ORIGIN 8.0 (OriginLab Corporation) [20, 21] The average activity (mean of log GI50) of each compound tested was also determined using MS Excel software.
In the next series the test system is MCF-7 (breast) cells. Nature of the series: Antiproliferative sulforhodamine B assay, MCF-7. It is filed as cell-based. To be noted: Homo sapiens, MCF7, MCF-7 mammary, 48 h treatment, SRB; for IC100: read-out: Total growth inhibition (TGI).
The test system of a further series is 786-0 (renal) cells. Nature of the series: Antiproliferative sulforhodamine B assay, 786-0. It is filed as cell-based. Conditions: Homo sapiens, 786-0 kidney, 48 h treatment, SRB; for IC100: read-out: Total growth inhibition (TGI).
Series [2] deals with nine human tumor cell lines. Nature of the series: Average antiproliferative activity over the tumor cell line panel (NCI criteria). It is filed as cell-based. Conditions: for GI50: Homo sapiens, 48 h; for Cytostatic activity classified in words by NCI criteria on mean logGI50: weak 1.1-1.5, moderate 0-1.1, potent <0, inactive >1.5.
Protocol: (§4) The in vitro antiproliferative activity of populene analogues 2a–e and 3a–e was investigated toward nine human tumor cell lines [CNS (U251), breast (MCF-7), ovarian (NCI-ADR/RES, OVCAR-03), renal (786-0), non-small cell lung (NCI-H460), prostate (PC-3), colon (HT-29) and leukemia (k-562)] and one human normal cell line (HaCat, human keratinocytes). The populene D analogues were tested at concentrations between 0.25 and 250 µg/mL and doxorubicin (DOX 0.025–25 µg/mL) was used as positive control. […] To analyze the GI50 parameter, mean log GI50 was calculated by conversion of the GI50 values for each tumor cell line tested (not including the normal cell line HaCat) against a test compound and then these values were averaged.
(§5) Cells in 96-well plates (100 μL cells/well) were exposed to various concentrations of compounds 2a–d and 3a–d diluted in DMSO (0.25, 2.5, 25 and 250 μg/mL) at 37 °C, 5% of CO2 for 48 h. […] Afterwards cells were fixed with 50% trichloroacetic acid and cell proliferation determined by spectrophotometric quantification (540 nm) of cellular protein content using sulforhodamine B assay[20]. Doxorubicin (0.025–25 mg/mL) was used as positive control. Three measurements were obtained at the beginning of incubation (time zero, T0) and 48 h post-incubation for compound-free (C) and tested (T) cells. Cell proliferation was determined according to the equation 100 × [(T − T0)/C − T0], for T0 < T ≤ C, and 100 × [(T − T0)/T0], for T ≤ T0 and a concentration-response curve for each cell line was plotted and, from these curves, GI50 (concentration causing 50% growth inhibition) and TGI (concentration that promotes total growth inhibition) were determined by means of non-linear regression analysis using software ORIGIN 8.0 (OriginLab Corporation) [20, 21] The average activity (mean of log GI50) of each compound tested was also determined using MS Excel software.
The test system of a further series is OVCAR-3 (ovarian) cells. Put plainly: Antiproliferative sulforhodamine B assay, OVCAR-3. It is filed as cell-based. To be noted: Homo sapiens, OVCAR-3 ovary, 48 h treatment, SRB; for IC100: read-out: Total growth inhibition (TGI).
Another series concerns U251 (glioma) cells. Nature of the series: Antiproliferative sulforhodamine B assay, U251. Conditions: Homo sapiens, U-251, 48 h treatment, SRB; for IC100: read-out: Total growth inhibition (TGI). It is filed as cell-based.
The subject of series [3] is NCI-ADR/RES (ovarian expressing phenotype multiple drugs resistance) cells. Nature of the series: Antiproliferative sulforhodamine B assay, NCI-ADR/RES. It is filed as cell-based. Conditions: Homo sapiens, NCI-ADR/RES drug resistant ovary, 48 h treatment, SRB; for IC100: read-out: Total growth inhibition (TGI).
Protocol: as §4, §2, §3
The test system of series [4] is HaCat (immortalized human keratinocytes). Nature of the series: Antiproliferative sulforhodamine B assay, HaCat normal cell line. Conditions: 48 h treatment, SRB. It is filed as cell-based.
Protocol: as §4, §2, §3
Assay in series [5]: as above
Protocol: as §4, §2, §3
To be noted: human; HaCat normal immortalized keratinocytes, 48 h treatment, SRB. It is filed as cell-based, human.

Another series concerns HT-29 (colon) cells. Put plainly: Antiproliferative sulforhodamine B assay, HT-29. It is filed as cell-based. Conditions: Homo sapiens, 48 h treatment, SRB; for IC100: read-out: Total growth inhibition (TGI).
In another series the test system is PC-3 (prostate) cells. Put plainly: Antiproliferative sulforhodamine B assay, PC-3. It is filed as cell-based. Conditions: Homo sapiens, Prostate cell, 48 h treatment, SRB; for IC100: read-out: Total growth inhibition (TGI).
The subject of the next series is B. subtilis. The arrangement: method as in PMID 18553924. Conditions: cited from earlier work.
Another series has as its system breast cancer (MCF-7). Also on record: method as in PMID 18553924. Conditions: cited from earlier work.
A further series relates to colon cancer (HT-29). Also on record: method as in PMID 18553924. To be noted: cited from earlier work.
In the next series the test system is cervical cancer (HeLa). The arrangement: method as in PMID 18553924. To be noted: cited from earlier work.
For a further series, the system named is oral cancer (KB). The arrangement: method as in PMID 18553924. Conditions: cited from earlier work.
The mark [6] stands for this setting: average of logGI50 (GI50 in μg/mL) over tumor cell lines tested, not including HaCat, read-out: Mean logGI50 (converted).
The mark [7] stands for this setting: class symbol by NCI's criteria on mean logGI50, read-out: Mean logGI50 activity class (NCI's criteria).

Protocol for 786-0 (renal) cells: as §4, §2, §3
Protocol for HT-29 (colon) cells: as §1, §2, §3
Protocol for K-562 (leukemia) cells: as §4, §5
Protocol for MCF-7 (breast) cells: as §4, §2, §3
Protocol for OVCAR-3 (ovarian) cells: as §1, §2, §3
Protocol for PC-3 (prostate) cells: as §1, §2, §3
Protocol for U251 (glioma) cells: as §4, §2, §3

Regarding `CC1COC(C)(C)C2=C1c1ccc(O)cc1CC2` (centres unmarked) [3b, 1,4,4-Trimethyl-1,4,5,6-tetrahydro-2H-benzo[f]isochromen-8-ol], the melting point is 199 to 201 °C. Further, in the series with K-562 (leukemia) cells, the GI50 came to 41.2 µg/mL (≈ 169 µM) and the IC100 was greater than 250 µg/mL. In addition, in series [1], the GI50 is 41.4 µg/mL (≈ 169 µM) and the “Total growth inhibition (TGI)” value is greater than 250 µg/mL. In the series on MCF-7 (breast) cells, the GI50 was 108 µg/mL (≈ 441 µM) and the IC100 is greater than 250 µg/mL. In the series on 786-0 (renal) cells, the GI50 is 36.8 µg/mL (≈ 151 µM) and the IC100 was greater than 250 µg/mL. Also, in series [2] (setting [6]), the GI50 is greater than 100 µg/mL. Further, the GI50 in series [2] (setting [7]) is greater than 31.6 µg/mL. Also, the “Cytostatic activity classified in words by NCI criteria on mean logGI50” value in series [2] was “inactive”. Besides, in the series with OVCAR-3 (ovarian) cells, the GI50 was greater than 250 µg/mL and the IC100 is greater than 250 µg/mL. For the same compound, in the series with U251 (glioma) cells, the GI50 was 46.3 µg/mL (≈ 189 µM) and the IC100 was greater than 250 µg/mL. For the same compound, in series [3], the GI50 is greater than 250 µg/mL and the IC100 was greater than 250 µg/mL. Besides, the “Total growth inhibition (TGI)” value in series [4] is greater than 250 µg/mL. Besides, in [5], the GI50 at 48 h is greater than 250 µg/mL. Further, in the series with HT-29 (colon) cells, the GI50 was determined as 78.4 µg/mL (≈ 321 µM) and the IC100 was greater than 250 µg/mL. In the series on PC-3 (prostate) cells, the GI50 was greater than 250 µg/mL and the IC100 was greater than 250 µg/mL.
For the compound `CC1COC(C)(C)C2=C1c1cc(O)ccc1CC2` (centres unmarked) [3c, 1,4,4-Trimethyl-1,4,5,6-tetrahydro-2H-benzo[f]isochromen-9-ol], the melting point is 160 to 162 °C. In the series on K-562 (leukemia) cells, the GI50 stood at 8.7 µg/mL (≈ 35.6 µM) and the IC100 stood at 39.2 µg/mL. For the same compound, in series [1], the GI50 was 24.2 µg/mL (≈ 99 µM) and the “Total growth inhibition (TGI)” value turned out to be 45.9 µg/mL. For the same compound, in the series with MCF-7 (breast) cells, the GI50 worked out at 24.7 µg/mL (≈ 101 µM) and the IC100 was found to be 45 µg/mL. In the series on 786-0 (renal) cells, the GI50 was found to be 24.6 µg/mL (≈ 101 µM) and the IC100 was 43 µg/mL. In addition, the GI50 in series [2] (setting [6]) was 14.1 µg/mL (≈ 57.8 µM). Moreover, the GI50 in [2] (setting [7]) was 12.6 to 31.6 µg/mL (≈ 51.5 to 129 µM). The “Cytostatic activity classified in words by NCI criteria on mean logGI50” value in series [2] is recorded as “weak”. In the series on OVCAR-3 (ovarian) cells, the GI50 was found to be 1.8 µg/mL (≈ 7.37 µM) and the IC100 is 31.5 µg/mL. In the series with U251 (glioma) cells, the GI50 stood at 27.8 µg/mL (≈ 114 µM) and the IC100 is 67.9 µg/mL. In series [3], the GI50 came out at 25 µg/mL (≈ 102 µM) and the IC100 was 200 µg/mL. Further, the “Total growth inhibition (TGI)” value in series [4] is greater than 250 µg/mL. Moreover, the GI50 at 48 h in [5] amounted to 3.6 µg/mL (≈ 14.7 µM). Also, in the series on HT-29 (colon) cells, the GI50 was found to be 22.9 µg/mL (≈ 93.7 µM) and the IC100 worked out at 53.3 µg/mL. Also, in the series on PC-3 (prostate) cells, the GI50 was 24.5 µg/mL (≈ 100 µM) and the IC100 is 51.8 µg/mL.
Turning to `Cc1cc2c(c(O)c1O)[C@H](C)CC1=C2[C@@H](C)COC1(C)C` [Populene D], the MIC in the series with B. subtilis is 4.69 µg/mL (≈ 16.3 µM). Moreover, the IC50 was 0.95 µg/mL (≈ 3.29 µM) in the series on breast cancer (MCF-7), 2.37 µg/mL (≈ 8.22 µM) with colon cancer (HT-29), 1.85 µg/mL (≈ 6.41 µM) in the series on cervical cancer (HeLa) and 3.10 µg/mL (≈ 10.7 µM) in the series with oral cancer (KB).

A word on the melting point: it is the temperature, or range, at which the solid turns liquid. Broadly, the MIC is the lowest concentration that inhibits growth of the organism. One may read the IC50 as the midpoint of a concentration-inhibition curve.

The values are drawn from PMC6269118, “Populene D Analogues: Design, Concise Synthesis and Antiproliferative Activity” (Molecules, 2012).
